Measured values reported in patent publication US20150209373A1, “Progesterone Receptor Modulators for Use in Preventing or Treating Androgen Mediated Diseases” (PregLem SA, priority 2012, published 2015).

Assays:
oestrogen receptors = test: in vitro nuclear receptor selectivity profile - oestrogen receptors; type: binding
mice [1] = test: 26 week oral carcinogenicity study with UPA in mice - organ weights; type: in vivo; conditions: 26 week oral carcinogenicity study in mice
Method: (§1) During a 104 week rat carcinogenicity assay, we observed seminal vesicles and prostate contraction at dose-levels of 1 (seminal vesicles, only), 3 and 10 mg/kg/day (PGL09-005). Similarly, during 4 and 26 week assays in the mouse, decreases in epididymidis weights were recorded at dose-levels ranging between 15 and 300 mg/kg/day (Tables 1 and 2). Ulipristal Acetate Anti-Androgenic Effect in a 26 Week Oral Carcinogenicity Study in Mice

glucocorticoid receptor = target: T1, glucocorticoid receptor (Homo sapiens, UniProt P04150); test: in vitro nuclear receptor selectivity profile - glucocorticoid receptor; type: binding
T1 sequence (P04150 1-777): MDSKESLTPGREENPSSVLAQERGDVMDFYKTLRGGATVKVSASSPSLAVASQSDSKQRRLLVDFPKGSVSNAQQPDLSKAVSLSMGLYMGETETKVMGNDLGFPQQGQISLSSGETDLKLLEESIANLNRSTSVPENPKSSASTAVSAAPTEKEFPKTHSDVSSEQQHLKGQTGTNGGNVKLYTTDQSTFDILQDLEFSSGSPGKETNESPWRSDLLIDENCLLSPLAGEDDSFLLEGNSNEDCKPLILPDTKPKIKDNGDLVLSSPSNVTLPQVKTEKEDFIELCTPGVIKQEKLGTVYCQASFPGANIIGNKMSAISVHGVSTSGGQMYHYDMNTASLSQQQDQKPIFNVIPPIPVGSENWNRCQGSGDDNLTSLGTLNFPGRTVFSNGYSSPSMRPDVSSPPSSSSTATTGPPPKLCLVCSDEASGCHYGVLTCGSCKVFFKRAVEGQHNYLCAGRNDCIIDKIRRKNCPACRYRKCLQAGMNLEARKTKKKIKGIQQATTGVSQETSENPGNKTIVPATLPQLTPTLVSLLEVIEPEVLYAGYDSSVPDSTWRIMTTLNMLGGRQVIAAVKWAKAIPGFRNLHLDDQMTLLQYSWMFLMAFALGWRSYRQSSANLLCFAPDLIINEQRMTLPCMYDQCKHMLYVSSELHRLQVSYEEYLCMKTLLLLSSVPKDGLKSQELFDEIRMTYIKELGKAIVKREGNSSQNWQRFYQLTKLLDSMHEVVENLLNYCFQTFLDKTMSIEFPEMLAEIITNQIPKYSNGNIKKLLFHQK

androgen receptor = target: T2, androgen receptor (Homo sapiens, UniProt P10275); test: in vitro nuclear receptor selectivity profile - androgen receptor; type: binding
T2 sequence (P10275 1-920): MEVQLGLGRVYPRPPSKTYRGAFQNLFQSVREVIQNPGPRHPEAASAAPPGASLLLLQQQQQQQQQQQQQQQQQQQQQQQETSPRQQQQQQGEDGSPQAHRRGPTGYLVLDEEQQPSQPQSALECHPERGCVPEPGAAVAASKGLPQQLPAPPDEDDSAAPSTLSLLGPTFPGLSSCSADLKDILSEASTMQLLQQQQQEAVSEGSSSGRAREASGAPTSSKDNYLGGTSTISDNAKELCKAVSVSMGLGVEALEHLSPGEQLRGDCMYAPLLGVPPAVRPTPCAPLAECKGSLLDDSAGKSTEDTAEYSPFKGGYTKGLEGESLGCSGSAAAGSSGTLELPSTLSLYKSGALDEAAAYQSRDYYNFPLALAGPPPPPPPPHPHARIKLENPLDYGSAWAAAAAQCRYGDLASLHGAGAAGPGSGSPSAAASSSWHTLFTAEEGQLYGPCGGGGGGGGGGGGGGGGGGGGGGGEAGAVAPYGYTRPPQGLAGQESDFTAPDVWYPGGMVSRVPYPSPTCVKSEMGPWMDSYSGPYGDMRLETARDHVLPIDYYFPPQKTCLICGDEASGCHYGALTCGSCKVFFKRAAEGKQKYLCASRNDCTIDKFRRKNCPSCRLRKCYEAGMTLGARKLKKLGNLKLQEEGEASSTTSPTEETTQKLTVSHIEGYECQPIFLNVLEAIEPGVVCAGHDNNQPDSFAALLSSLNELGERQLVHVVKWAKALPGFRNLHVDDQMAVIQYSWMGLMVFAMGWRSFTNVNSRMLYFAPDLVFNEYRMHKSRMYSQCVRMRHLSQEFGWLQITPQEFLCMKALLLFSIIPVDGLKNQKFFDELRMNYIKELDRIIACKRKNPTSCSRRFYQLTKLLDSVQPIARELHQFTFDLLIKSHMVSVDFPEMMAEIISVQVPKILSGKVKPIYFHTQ

rat = test: 104 week rat carcinogenicity assay (PGL09-005); type: in vivo; conditions: 104 weeks
Method: as §1, with “2).” for “2). Ulipristal Acetate Anti-Androgenic Effect in a 26 Week Oral Carcinogenicity Study in Mice”

progesterone receptor = target: T3, progesterone receptor (Homo sapiens, UniProt P06401); test: in vitro nuclear receptor selectivity profile - progesterone receptor; type: binding
T3 sequence (P06401 1-933): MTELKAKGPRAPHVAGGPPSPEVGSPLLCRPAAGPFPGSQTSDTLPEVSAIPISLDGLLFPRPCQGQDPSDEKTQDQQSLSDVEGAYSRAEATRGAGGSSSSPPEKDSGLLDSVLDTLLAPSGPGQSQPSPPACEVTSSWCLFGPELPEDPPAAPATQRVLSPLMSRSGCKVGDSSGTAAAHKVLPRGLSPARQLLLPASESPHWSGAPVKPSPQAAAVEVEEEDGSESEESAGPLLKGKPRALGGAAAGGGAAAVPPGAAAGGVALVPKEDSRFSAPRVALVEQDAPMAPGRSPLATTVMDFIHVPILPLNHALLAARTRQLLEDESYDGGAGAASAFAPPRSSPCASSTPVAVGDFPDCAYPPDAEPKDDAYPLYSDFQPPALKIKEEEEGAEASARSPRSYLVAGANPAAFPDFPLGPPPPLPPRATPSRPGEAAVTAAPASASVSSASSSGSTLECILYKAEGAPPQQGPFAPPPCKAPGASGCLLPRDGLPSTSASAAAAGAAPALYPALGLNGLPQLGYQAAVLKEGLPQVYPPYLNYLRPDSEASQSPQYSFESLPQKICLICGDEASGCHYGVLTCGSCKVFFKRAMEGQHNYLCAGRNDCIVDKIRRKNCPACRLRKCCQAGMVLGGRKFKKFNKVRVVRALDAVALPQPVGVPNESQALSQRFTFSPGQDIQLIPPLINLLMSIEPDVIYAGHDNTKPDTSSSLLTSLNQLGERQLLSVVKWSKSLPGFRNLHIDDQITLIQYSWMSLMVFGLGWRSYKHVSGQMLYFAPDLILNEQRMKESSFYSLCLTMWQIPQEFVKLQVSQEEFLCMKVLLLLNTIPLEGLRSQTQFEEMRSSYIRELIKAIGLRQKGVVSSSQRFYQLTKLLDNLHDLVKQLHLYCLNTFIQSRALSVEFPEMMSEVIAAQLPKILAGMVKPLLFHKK

mice [2] = test: 4 week oral toxicity study with UPA in mice - organ weights; type: in vivo; conditions: 4 week oral toxicity study in mice
Method: as §1, with “a 4” for “a 26”, “Oral Toxicity” for “Oral Carcinogenicity”

In the case of `CC(=O)O[C@]1(C(C)=O)CC[C@H]2[C@@H]3CCC4=CC(=O)CCC4=C3[C@@H](c3ccc(N(C)C)cc3)C[C@@]21C` [UPA, Ulipristal acetate], the “affinity for the oestrogen receptors” value (oestrogen receptors) is reported as “no affinity”, the “interpretation of decrease in organ weight” value (mice [1]) is reported as “suggestive of anti-androgenic like effects” and the “affinity for the glucocorticoid receptor” value (glucocorticoid receptor) is reported as “high affinity”. The “in vivo anti-androgenic activity” value (in vivo activity profile) was “anti-androgenic effects”, the “in vivo anti-glucocorticoid activity” value (in vivo activity profile) was “no significant anti-glucocorticoid effects” and the “affinity for the androgen receptor” value (androgen receptor) was “much lower affinity”. The seminal vesicles finding (rat; dose-levels of 1, 3 and 10 mg/kg/day) was “contraction”, the prostate finding (rat; dose-levels of 3 and 10 mg/kg/day (not at 1 mg/kg/day)) was “contraction” and the “affinity for the progesterone receptor” value (progesterone receptor) was “high affinity”. The “interpretation of decrease in organ weight” value (mice [2]) was “suggestive of anti-androgenic like effects”.
